Results reported in ChEMBL document CHEMBL1201862, “PubChem BioAssay data set” (2004).
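All cell lines were grown in 96-well plates and treated with compound for 48 hours. GI50 = concentration required for 50% inhibition of growth.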 The source made the active and inactive calls. No stated cut-off is given here; in the data, active = GI50 up to about 1.1 µM and inactive = higher.

Tests used:
Assay in all cases: DTP human tumour cell line panel, 48 h
[1] = test system: BT-549
[2] = test system: HL-60
[3] = test system: HOP-62
[4] = test system: Hs-578T
[5] = test system: K562
[6] = test system: MCF7
[7] = test system: MDA-MB-231
[8] = test system: MDA-N
[9] = test system: NCI-H226
[10] = test system: SK-MEL-28
[11] = test system: SNB-75
[12] = test system: TK-10
[13] = test system: U-251
[14] = test system: UO-31
[15] = test system: DMS-114
[16] = test system: DMS-273
[17] = test system: KM-20L2
[18] = test system: M19-MEL

Measured: GI50

NS(=O)(=O)c1cc(C(=O)O)c(Cl)c([N+](=O)[O-])c1Cl
inactive: [1] > 100 µM | [2] > 100 µM | [3] > 100 µM | [4] > 100 µM | [5] > 100 µM | [6] > 100 µM | [7] > 100 µM | [8] > 100 µM | [9] > 100 µM | [10] > 100 µM | [11] > 100 µM | [12] > 100 µM | [13] > 100 µM | [14] > 100 µM

CCCCCCCCSC1=C(Cl)C(=O)C(OC)=C(OC)C1=O
inactive: [1] 14 µM | [2] 2.11 µM | [3] 17.2 µM | [4] 20.7 µM | [5] 9.71 µM | [6] 3.94 µM | [7] 12.4 µM | [8] 3.82 µM | [9] 12.4 µM | [11] 19.1 µM | [12] 14.1 µM | [13] 10.5 µM | [14] 12.1 µM

CC(=O)O[C@H]1[C@@H](N2CCOCC2)C[C@H]2[C@@H]3CC=C4C[C@@H](N5CCCC5)CC[C@]4(C)[C@H]3CC[C@@]21C
inactive: [1] > 100 µM | [2] 56.4 µM | [3] > 100 µM | [4] > 100 µM | [5] 24 µM | [6] > 100 µM | [7] > 100 µM | [8] > 100 µM | [9] > 100 µM | [10] > 100 µM | [11] > 100 µM | [12] > 100 µM | [13] > 100 µM | [14] > 100 µM

CCSc1c2cc(OC)ccc2nc2ccc(OC)cc12
inactive: [1] 23.7 µM | [2] 2.62 µM | [3] 19.1 µM | [4] > 100 µM | [5] 5.74 µM | [6] 4.99 µM | [7] 8.57 µM | [8] 5.24 µM | [9] 11.9 µM | [10] 14.9 µM | [11] 6.73 µM | [12] 9.64 µM | [13] 12.5 µM | [14] 12.6 µM

CCOC1=NC(C(F)(F)F)(C(F)(F)F)N=C(/N=C(/N)N(C)C(C(C)C)P(=O)(OC(C)C)OC(C)C)O1 (configuration not stated)
inactive: [1] 40.6 µM | [2] 27.7 µM | [3] > 100 µM | [4] 61.4 µM | [5] 34.7 µM | [6] > 100 µM | [7] > 100 µM | [8] > 100 µM | [9] > 100 µM | [10] > 100 µM | [11] 44.8 µM | [12] > 100 µM | [13] 64.9 µM | [14] > 100 µM

O=C1NC(=O)C(C(CC(=O)c2ccc(Cl)cc2)c2ccc(Cl)cc2)C(=O)N1 (configuration not stated)
inactive: [1] > 100 µM | [2] > 100 µM | [3] > 100 µM | [4] > 100 µM | [5] > 100 µM | [6] 17.2 µM | [7] > 100 µM | [8] 92 µM | [9] > 100 µM | [10] > 100 µM | [11] > 100 µM | [13] > 100 µM | [14] > 100 µM

O=C1C=CC(O)(C#CCO)C=C1
inactive: [1] 12 µM | [2] 3.17 µM | [3] 30.5 µM | [4] 29.2 µM | [5] 2.92 µM | [6] 4.33 µM | [7] 18.7 µM | [8] 8.57 µM | [9] 13.4 µM | [10] 12.9 µM | [11] 21.3 µM | [12] 13.1 µM | [13] 11.6 µM | [14] 13.5 µM

C#C[C@]1(O)CC[C@H]2[C@@H]3CCC4=C/C(=N\OCCN5CCCCC5)CC[C@]4(C)[C@H]3CC[C@@]21C
inactive: [1] 5.89 µM | [2] 3.19 µM | [3] 11 µM | [4] 3.53 µM | [5] 1.65 µM | [6] 3.34 µM | [7] 13.9 µM | [8] 1.66 µM | [9] 17.2 µM | [10] 8.13 µM | [11] 4.3 µM | [12] 7.28 µM | [13] 9.68 µM | [14] 4.23 µM

C=CCOC1=C(OC(C)=O)C(C2COC(C)(C)O2)OC1=O (configuration not stated)
inactive: [1] 27.4 µM | [2] 19.6 µM | [3] > 100 µM | [4] 33.4 µM | [5] 18 µM | [6] 16.7 µM | [7] 17.1 µM | [8] 29.7 µM | [9] 95.3 µM | [10] 22.2 µM | [11] 71.3 µM | [12] 29.7 µM | [13] 26.5 µM | [14] 18.6 µM

O=C(OCCN=c1c2ccccc2ccc2ccccc12)c1cc([N+](=O)[O-])cc([N+](=O)[O-])c1
inactive: [1] 25.8 µM | [2] > 100 µM | [3] > 100 µM | [4] > 100 µM | [5] > 100 µM | [6] > 100 µM | [7] > 100 µM | [8] > 100 µM | [9] > 100 µM | [10] > 100 µM | [11] > 100 µM | [12] > 100 µM | [13] > 100 µM | [14] > 100 µM

Cc1cccc(NC(=O)/C=C/c2ccc(N(CCC#N)CCC#N)cc2C)c1
inactive: [15] 49.9 µM | [16] > 100 µM | [2] 21.5 µM | [3] > 100 µM | [5] 16.8 µM | [17] > 100 µM | [18] > 100 µM | [9] > 100 µM | [10] > 100 µM | [11] 54.5 µM | [12] > 100 µM | [13] > 100 µM | [14] 24.5 µM

COc1ccc(C2NC(N)=C(C#N)C3=C2C(C)CCC3)cc1OC (configuration not stated)
inactive: [1] 68.2 µM | [2] 14.5 µM | [3] 15.9 µM | [4] 74.3 µM | [5] 25.6 µM | [6] 43.2 µM | [7] 59.7 µM | [8] > 100 µM | [9] > 100 µM | [10] > 100 µM | [11] 1.44 µM | [12] 92.3 µM | [13] 41.8 µM | [14] 4.65 µM

O=C(c1ccccc1)c1c(CC(O)c2ccccn2)n(C(=O)c2ccccc2)c2ccccc12 (configuration not stated)
inactive: [15] 22 µM | [16] 23.6 µM | [2] > 10 µM | [3] 17.9 µM | [5] 27.9 µM | [17] 18.5 µM | [18] 20.8 µM | [9] 20.5 µM | [10] 20.4 µM | [11] 8.04 µM | [12] 38.4 µM | [13] 25.1 µM | [14] 22.1 µM

CN(Cc1cnc2nc(N)nc(N)c2n1)c1ccc(C(=O)NC(CCC(=O)NCCC(P(=O)(O)O)P(=O)(O)O)C(=O)O)cc1 (configuration not stated)
inactive: [1] > 100 µM | [2] 4.12 µM | [3] 52.6 µM | [4] > 100 µM | [5] 1.47 µM | [6] 5 µM | [7] > 100 µM | [8] 8.55 µM | [9] > 89.7 µM | [10] > 100 µM | [11] > 100 µM | [12] > 100 µM | [13] 25.9 µM | [14] 22 µM
